Earlier results on three compounds are cited in patent US20210000953A1, “USE OF IMMUNE CHECKPOINT INHIBITORS IN CENTRAL NERVOUS SYSTEMS NEOPLASMS” (Bristol-Myers Squibb Company, priority 2014, published 2021).

One data set relates to recurrent GBM. Particulars: single agent, relapsed setting; cited from earlier work.
The test system of the next data set is previously treated GBM. Particulars: AVF3708g, cited from earlier work.
The test system of a further data set is newly diagnosed GBM. Particulars: cited from earlier work.
Data set [1] relates to previously treated gliomas. As to conditions: NCI 06-C-0064E, cited from earlier work.
For data set [2] the following is noted: in vivo; cited from earlier work.

`CCc1c2c(nc3ccc(OC(=O)N4CCC(N5CCCCC5)CC4)cc13)-c1cc3c(c(=O)n1C2)COC(=O)[C@]3(O)CC` [irinotecan]: in the data set on recurrent GBM, the Response rates is given as at most 15%.
As for bevacizumab, the “Responses, % of patients” value in the data set with previously treated GBM (WHO radiographic criteria, 95% CI:17.0%, 36.1%) is 25.9%. For the same compound, the “Median duration of response” value with previously treated GBM (95% CI: 3.0, 5.7 months) is given as 4.2 months; in data set [1] (95% CI: 2.4, 17.4) it was 3.9 months. In addition, the “Cognitive function and quality of life” value in the data set on newly diagnosed GBM (in vivo) was “reduced cognitive function and quality of life”. Besides, the Overall survival result with newly diagnosed GBM (newly diagnosed GBM, above standard of care (radiotherapy plus temozolomide)) was “does not significantly increase overall survival”. For the same compound, the Progression-free survival entry with newly diagnosed GBM (newly diagnosed GBM, with radiotherapy plus temozolomide) was “increases progression-free survival”. For the same compound, the Objective responses in data set [1] (56 patients with high-grade glioma, 95% CI, 10.9%, 31.3%) was 19.6%.
Consider `Cn1nnc2c(C(N)=O)ncn2c1=O` [temozolomide], for which the Terminal half-life in data set [2] was 1.2 h.
